Legend:
GPBAR1 (TGR5) = biological target: T1, GPBAR1 (TGR5) (Homo sapiens, UniProt Q8TDU6); experiment: CRE-luciferase transactivation in HEK293T cells transfected with human GPBAR1; format: cell-based
T1 construct: pCMVSPORT6-human GPBAR1
T1 sequence (Q8TDU6 1-330): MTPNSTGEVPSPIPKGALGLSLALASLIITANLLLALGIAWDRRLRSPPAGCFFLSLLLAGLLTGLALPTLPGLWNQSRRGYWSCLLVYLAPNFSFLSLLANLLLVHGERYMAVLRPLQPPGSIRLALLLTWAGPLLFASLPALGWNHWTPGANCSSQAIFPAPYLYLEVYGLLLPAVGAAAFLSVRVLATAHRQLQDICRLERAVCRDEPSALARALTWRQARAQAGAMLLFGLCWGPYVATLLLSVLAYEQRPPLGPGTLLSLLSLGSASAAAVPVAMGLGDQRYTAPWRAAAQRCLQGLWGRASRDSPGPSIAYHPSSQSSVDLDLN

[1] = biological target: T2, farnesoid X receptor (FXR) (Homo sapiens, UniProt Q96RI1); experiment: FXRE (hsp27 IR1) luciferase transactivation in HepG2 cells transfected with FXR and RXR; format: cell-based
T2 construct: gene NR1H4; pSG5-FXR; with RXR (pSG5-RXR cotransfected)
T2 sequence (Q96RI1 1-486): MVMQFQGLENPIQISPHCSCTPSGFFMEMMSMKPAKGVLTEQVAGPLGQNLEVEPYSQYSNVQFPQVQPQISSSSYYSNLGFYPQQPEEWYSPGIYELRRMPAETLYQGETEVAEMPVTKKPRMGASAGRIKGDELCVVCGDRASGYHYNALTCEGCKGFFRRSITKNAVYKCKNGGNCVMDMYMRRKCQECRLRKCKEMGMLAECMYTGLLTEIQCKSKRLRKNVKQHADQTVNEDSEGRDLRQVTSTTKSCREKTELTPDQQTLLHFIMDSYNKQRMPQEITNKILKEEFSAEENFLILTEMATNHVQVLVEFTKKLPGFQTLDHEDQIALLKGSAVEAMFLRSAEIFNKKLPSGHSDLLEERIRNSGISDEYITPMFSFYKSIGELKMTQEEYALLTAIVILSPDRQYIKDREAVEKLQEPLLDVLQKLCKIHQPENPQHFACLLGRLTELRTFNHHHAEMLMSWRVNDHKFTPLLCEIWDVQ
T2 sequence (P19793 1-462 partner): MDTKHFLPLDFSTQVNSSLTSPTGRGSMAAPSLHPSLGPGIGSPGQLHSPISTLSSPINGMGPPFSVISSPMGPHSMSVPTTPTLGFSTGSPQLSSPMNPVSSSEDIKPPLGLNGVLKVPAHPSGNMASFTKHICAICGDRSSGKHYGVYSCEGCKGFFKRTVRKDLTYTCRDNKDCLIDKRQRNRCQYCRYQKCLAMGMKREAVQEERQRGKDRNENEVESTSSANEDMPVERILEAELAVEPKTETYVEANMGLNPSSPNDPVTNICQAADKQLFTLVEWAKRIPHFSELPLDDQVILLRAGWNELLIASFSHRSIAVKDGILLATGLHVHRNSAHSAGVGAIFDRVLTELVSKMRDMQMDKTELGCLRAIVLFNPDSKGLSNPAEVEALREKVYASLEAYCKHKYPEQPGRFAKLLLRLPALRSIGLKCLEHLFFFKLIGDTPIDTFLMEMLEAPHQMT

`CC[C@H]1[C@@H](O)[C@@H]2[C@H](CC[C@]3(C)[C@@H]([C@H](C)CCO)CC[C@@H]23)[C@@]2(C)CC[C@@H](O)C[C@@H]12` [BAR502, 6α-ethyl-3α, 7α-dihydroxy-24-nor-5β-cholan-23-ol] was tested, and the EC50 (GPBAR1 (TGR5)) was 0.4 ± 0.1 µM and the EC50 [1] was 2 ± 0.2 µM.

Source: article PMC4503431, “Impaired Itching Perception in Murine Models of Cholestasis Is Supported by Dysregulation of GPBAR1 Signaling” (PLoS ONE, 2015)
